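Each compound was tested at five concentrations against cells in 96-well plates for 48 hours. At the TGI there is no net growth.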
What was measured:
Test in all cases: DTP human tumour cell line panel, 48 h
UACC-257 melanoma = test system: UACC-257 melanoma
CAKI-1 renal = test system: CAKI-1 renal
M14 melanoma = test system: M14 melanoma
SK-MEL-28 melanoma = test system: SK-MEL-28 melanoma
UACC-62 melanoma = test system: UACC-62 melanoma
SK-MEL-5 melanoma = test system: SK-MEL-5 melanoma
HL-60(TB) leukemia = test system: HL-60(TB) leukemia
HCT-116 colon = test system: HCT-116 colon
A549 NSCLC = test system: A549 NSCLC
MDA-MB-231 breast = test system: MDA-MB-231 breast
MOLT-4 leukemia = test system: MOLT-4 leukemia
SNB-75 CNS = test system: SNB-75 CNS
MALME-3M melanoma = test system: MALME-3M melanoma
NCI-H522 lung = test system: NCI-H522 lung
OVCAR-5 ovarian = test system: OVCAR-5 ovarian
SK-OV-3 ovarian = test system: SK-OV-3 ovarian
U251 CNS = test system: U251 CNS
CCRF-CEM leukemia = test system: CCRF-CEM leukemia
UO-31 renal = test system: UO-31 renal
NCI-H226 lung = test system: NCI-H226 lung
SF-268 CNS = test system: SF-268 CNS
BT-549 breast = test system: BT-549 breast
RPMI-8226 leukemia = test system: RPMI-8226 leukemia
NCI/ADR-RES ovarian = test system: NCI/ADR-RES ovarian
COLO 205 colon = test system: COLO 205 colon
SW-620 colon = test system: SW-620 colon
DU-145 prostate = test system: DU-145 prostate
K-562 leukemia = test system: K-562 leukemia
OVCAR-4 ovarian = test system: OVCAR-4 ovarian
TK-10 renal = test system: TK-10 renal
SF-295 CNS = test system: SF-295 CNS
HS 578T breast = test system: HS 578T breast
PC-3 prostate = test system: PC-3 prostate
SN12C renal = test system: SN12C renal
RXF 393 renal = test system: RXF 393 renal
SK-MEL-2 melanoma = test system: SK-MEL-2 melanoma
LOX IMVI melanoma = test system: LOX IMVI melanoma
786-0 renal = test system: 786-0 renal
HOP-92 NSCLC = test system: HOP-92 NSCLC
A498 renal = test system: A498 renal
MDA-N = test system: MDA-N
HCC-2998 colon = test system: HCC-2998 colon
HCT-15 colon = test system: HCT-15 colon
OVCAR-3 ovarian = test system: OVCAR-3 ovarian
OVCAR-8 ovarian = test system: OVCAR-8 ovarian
SR leukemia = test system: SR leukemia
NCI-H23 lung = test system: NCI-H23 lung
KM12 colon = test system: KM12 colon
HT29 colon = test system: HT29 colon
MDA-MB-435 = test system: MDA-MB-435
MCF7 breast = test system: MCF7 breast
EKVX NSCLC = test system: EKVX NSCLC
SF-539 CNS = test system: SF-539 CNS
ACHN renal = test system: ACHN renal
T-47D breast = test system: T-47D breast
SNB-19 CNS = test system: SNB-19 CNS
NCI-H460 lung = test system: NCI-H460 lung
IGROV1 ovarian = test system: IGROV1 ovarian
HOP-62 NSCLC = test system: HOP-62 NSCLC

## Cn1c(=O)n2n(c1=O)Cc1cccc3cccc(c13)C2
UACC-257 melanoma
  TGI: > 100 µM
CAKI-1 renal
  TGI: > 100 µM
M14 melanoma
  TGI: > 100 µM
SK-MEL-28 melanoma
  TGI: > 100 µM
UACC-62 melanoma
  TGI: > 100 µM
SK-MEL-5 melanoma
  TGI: > 100 µM
HL-60(TB) leukemia
  TGI: 4.18 µM
HCT-116 colon
  TGI: > 100 µM
A549 NSCLC
  TGI: > 100 µM
MDA-MB-231 breast
  TGI: > 100 µM
MOLT-4 leukemia
  TGI: > 100 µM
SNB-75 CNS
  TGI: > 100 µM
MALME-3M melanoma
  TGI: > 100 µM
NCI-H522 lung
  TGI: > 100 µM
OVCAR-5 ovarian
  TGI: > 100 µM
SK-OV-3 ovarian
  TGI: > 100 µM
U251 CNS
  TGI: > 100 µM
CCRF-CEM leukemia
  TGI: > 100 µM
UO-31 renal
  TGI: > 100 µM
NCI-H226 lung
  TGI: > 100 µM
SF-268 CNS
  TGI: > 100 µM
BT-549 breast
  TGI: > 100 µM
RPMI-8226 leukemia
  TGI: > 100 µM
NCI/ADR-RES ovarian
  TGI: > 100 µM
COLO 205 colon
  TGI: > 100 µM
SW-620 colon
  TGI: > 100 µM
DU-145 prostate
  TGI: > 100 µM
K-562 leukemia
  TGI: > 100 µM
OVCAR-4 ovarian
  TGI: > 100 µM
TK-10 renal
  TGI: > 100 µM
SF-295 CNS
  TGI: > 100 µM
HS 578T breast
  TGI: > 100 µM
PC-3 prostate
  TGI: > 100 µM
SN12C renal
  TGI: > 100 µM
RXF 393 renal
  TGI: > 100 µM
SK-MEL-2 melanoma
  TGI: > 100 µM
LOX IMVI melanoma
  TGI: > 100 µM
786-0 renal
  TGI: > 100 µM
HOP-92 NSCLC
  TGI: > 100 µM
A498 renal
  TGI: > 100 µM
MDA-N
  TGI: > 100 µM
HCC-2998 colon
  TGI: > 100 µM
HCT-15 colon
  TGI: > 100 µM
OVCAR-3 ovarian
  TGI: > 100 µM
OVCAR-8 ovarian
  TGI: > 100 µM
SR leukemia
  TGI: > 100 µM
NCI-H23 lung
  TGI: > 100 µM
KM12 colon
  TGI: > 100 µM
HT29 colon
  TGI: > 100 µM
MDA-MB-435
  TGI: > 100 µM
MCF7 breast
  TGI: > 100 µM
EKVX NSCLC
  TGI: > 100 µM
SF-539 CNS
  TGI: > 100 µM
ACHN renal
  TGI: > 100 µM
T-47D breast
  TGI: > 100 µM
SNB-19 CNS
  TGI: > 100 µM
NCI-H460 lung
  TGI: > 100 µM

## CC(C)(C)c1cc(C(=O)/C=C/c2ccc(O)c(O)c2O)cc(C(C)(C)C)c1O
IGROV1 ovarian
  TGI: 43.9 µM
UACC-257 melanoma
  TGI: 10.6 µM
CAKI-1 renal
  TGI: 15.6 µM
M14 melanoma
  TGI: 20.6 µM
SK-MEL-28 melanoma
  TGI: 28.1 µM
UACC-62 melanoma
  TGI: 18.8 µM
SK-MEL-5 melanoma
  TGI: 19 µM
HL-60(TB) leukemia
  TGI: 5.82 µM
HCT-116 colon
  TGI: 12.7 µM
A549 NSCLC
  TGI: 40.9 µM
MDA-MB-231 breast
  TGI: 36 µM
MOLT-4 leukemia
  TGI: 28.9 µM
SNB-75 CNS
  TGI: 12.6 µM
MALME-3M melanoma
  TGI: > 67.5 µM
NCI-H522 lung
  TGI: 4.94 µM
OVCAR-5 ovarian
  TGI: 39.1 µM
SK-OV-3 ovarian
  TGI: 53.7 µM
U251 CNS
  TGI: 12.3 µM
CCRF-CEM leukemia
  TGI: 7.84 µM
UO-31 renal
  TGI: 13.9 µM
NCI-H226 lung
  TGI: 33.2 µM
SF-268 CNS
  TGI: > 51.4 µM
BT-549 breast
  TGI: 28.2 µM
RPMI-8226 leukemia
  TGI: 4.4 µM
NCI/ADR-RES ovarian
  TGI: 14.8 µM
COLO 205 colon
  TGI: 26.3 µM
SW-620 colon
  TGI: 17.9 µM
DU-145 prostate
  TGI: 35.6 µM
K-562 leukemia
  TGI: 21.7 µM
OVCAR-4 ovarian
  TGI: 26.5 µM
TK-10 renal
  TGI: 18.3 µM
SF-295 CNS
  TGI: 27.8 µM
HS 578T breast
  TGI: > 45.1 µM
PC-3 prostate
  TGI: 15.7 µM
SN12C renal
  TGI: 13.8 µM
RXF 393 renal
  TGI: 13.3 µM
SK-MEL-2 melanoma
  TGI: 19.2 µM
LOX IMVI melanoma
  TGI: 24.3 µM
786-0 renal
  TGI: 28.8 µM
HOP-92 NSCLC
  TGI: > 42.6 µM
A498 renal
  TGI: 34.4 µM
MDA-N
  TGI: 28.9 µM
HCC-2998 colon
  TGI: 11.7 µM
HCT-15 colon
  TGI: 14.8 µM
OVCAR-3 ovarian
  TGI: > 100 µM
OVCAR-8 ovarian
  TGI: > 63.7 µM
SR leukemia
  TGI: 4.67 µM
NCI-H23 lung
  TGI: 20 µM
KM12 colon
  TGI: 11.6 µM
HT29 colon
  TGI: 27.7 µM
HOP-62 NSCLC
  TGI: 27.8 µM
MDA-MB-435
  TGI: 36.7 µM
MCF7 breast
  TGI: 27.2 µM
EKVX NSCLC
  TGI: 54 µM
SF-539 CNS
  TGI: 10.2 µM
ACHN renal
  TGI: 18.9 µM
T-47D breast
  TGI: 13.3 µM
SNB-19 CNS
  TGI: > 29.3 µM
NCI-H460 lung
  TGI: 6.56 µM
